Target: T1, STING (Homo sapiens, UniProt Q86WV6, G230A/H232R/R293Q/R71H)
T1 construct: host or cells: THP1-Dual KO-IFNAR2 cells
Experiment: STING reporter assay (luciferase) in THP1-Dual KO-IFNAR2 cells stimulated with 2′3′cGAMP
Type: cell-based
Settings: 2′3′cGAMP 15 μM final, 24 h, luciferase reporter activity, read-out: Pharmaron, THP1_IFNAR2 STING 24 h Luci Normalized: GeoMean EC50
Method in brief: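 THP1-Dual KO-IFNAR2 cells (2×10E6 cells/mL) exposed to compounds at 0.0017-100 μM final and stimulated with 2′3′cGAMP (15 μM final) delivered via Lipofectamine 2000. After 24 h at 37° C., secreted luciferase in supernatant read with QUANTI-Luc Plus; EC50 derived from luminescence.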

T1 sequence (Q86WV6 whole entry R71H/G230A/H232R/R293Q): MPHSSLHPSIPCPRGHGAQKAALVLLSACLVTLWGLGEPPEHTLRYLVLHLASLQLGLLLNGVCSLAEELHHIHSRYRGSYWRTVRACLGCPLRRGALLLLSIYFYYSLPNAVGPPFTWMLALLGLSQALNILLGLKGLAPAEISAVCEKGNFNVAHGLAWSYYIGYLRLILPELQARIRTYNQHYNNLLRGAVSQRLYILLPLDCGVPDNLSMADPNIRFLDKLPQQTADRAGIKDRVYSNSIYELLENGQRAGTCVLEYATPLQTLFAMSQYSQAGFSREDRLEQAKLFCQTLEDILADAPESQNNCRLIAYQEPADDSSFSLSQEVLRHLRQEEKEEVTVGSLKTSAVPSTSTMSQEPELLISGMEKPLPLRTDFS

SMILES	EC50
O=C(Nc1c[nH]c2ccc(O[C@H]3C[C@H](c4ccc(C(F)(F)F)cc4)C3)cc12)c1ccncc1 [Compound 225, N-{5-[(1R,3R)-3-[4-(trifluoromethyl)phenyl]cyclobutoxy]-1H-indol-3-yl}pyridine-4-carboxamide]	0.2 to 1 µM
O=C(Nc1c[nH]c2ccc(O[C@H]3C[C@H](c4ccc(C(F)(F)F)cc4)C3)cc12)c1ccn[nH]1 [Compound 226, N-{5-[(1R,3R)-3-[4-(trifluoromethyl)phenyl]cyclobutoxy]-1H-indol-3-yl}-1H-pyrazole-5-carboxamide]	0.04 to 0.2 µM
O=C(Nc1c[nH]c2ccc(O[C@H]3C[C@H](c4ccc(C(F)(F)F)cc4)C3)cc12)c1cccnc1 [Compound 227, N-{5-[(1R,3R)-3-[4-(trifluoromethyl)phenyl]cyclobutoxy]-1H-indol-3-yl}pyridine-3-carboxamide]	0.2 to 1 µM
O=C(Nc1c[nH]c2ccc(O[C@H]3C[C@H](c4ccc(C(F)(F)F)cc4)C3)cc12)c1ccccn1 [Compound 228, N-{5-[(1R,3R)-3-[4-(trifluoromethyl)phenyl]cyclobutoxy]-1H-indol-3-yl}pyridine-2-carboxamide]	0.2 to 1 µM
O=C(Nc1c[nH]c2ccc(O[C@H]3C[C@H](c4ccc(C(F)(F)F)cc4)C3)cc12)C1CC2(CC2)C1 [Compound 229, N-{5-[(1R,3R)-3-[4-(trifluoromethyl)phenyl]cyclobutoxy]-1H-indol-3-yl}spiro[2.3]hexane-5-carboxamide]	0.04 to 0.2 µM
O=C(Nc1c[nH]c2ccc(O[C@H]3C[C@H](c4ccc(C(F)(F)F)cc4)C3)cc12)C1CC12CCC2 (stereo partly drawn) [Compound 230, N-{5-[(1R,3R)-3-[4-(trifluoromethyl)phenyl]cyclobutoxy]-1H-indol-3-yl}spiro[2.3]hexane-1-carboxamide]	0.04 to 0.2 µM
O=C(Nc1c[nH]c2ccc(O[C@H]3C[C@H](c4ccc(C(F)(F)F)cc4)C3)cc12)c1ncccc1F [Compound 231, 3-fluoro-N-{5-[(1R,3R)-3-[4-(trifluoromethyl)phenyl]cyclobutoxy]-1H-indol-3-yl}pyridine-2-carboxamide]	0.04 to 0.2 µM
O=C(Nc1c[nH]c2ccc(O[C@H]3C[C@H](c4ccc(C(F)(F)F)cc4)C3)cc12)c1nccs1 [Compound 232, N-{5-[(1R,3R)-3-[4-(trifluoromethyl)phenyl]cyclobutoxy]-1H-indol-3-yl}-1,3-thiazole-2-carboxamide]	0.04 to 0.2 µM
Cc1oncc1C(=O)Nc1c[nH]c2ccc(O[C@H]3C[C@H](c4ccc(C(F)(F)F)cc4)C3)cc12 [Compound 233, 5-methyl-N-{5-[(1R,3R)-3-[4-(trifluoromethyl)phenyl]cyclobutoxy]-1H-indol-3-yl}-1,2-oxazole-4-carboxamide]	5 to 100 µM
Cc1noc(C)c1C(=O)Nc1c[nH]c2ccc(O[C@H]3C[C@H](c4ccc(C(F)(F)F)cc4)C3)cc12 [Compound 234, 3,5-dimethyl-N-{5-[(1R,3R)-3-[4-(trifluoromethyl)phenyl]cyclobutoxy]-1H-indol-3-yl}-1,2-oxazole-4-carboxamide]	0.2 to 1 µM
O=C(Nc1c[nH]c2ccc(O[C@H]3C[C@H](c4ccc(C(F)(F)F)cc4)C3)cc12)c1cncs1 [Compound 235, N-{5-[(1R,3R)-3-[4-(trifluoromethyl)phenyl]cyclobutoxy]-1H-indol-3-yl}-1,3-thiazole-5-carboxamide]	0.2 to 1 µM
O=C(Nc1c[nH]c2ccc(OCc3ccc(C(F)(F)F)cc3)cc12)C1CC12CCC2 (stereo not shown) [Compound 236, N-(5-{[4-(trifluoromethyl)phenyl]methoxy}-1H-indol-3-yl)spiro[2.3]hexane-1-carboxamide]	0.04 to 0.2 µM
Cn1nccc1C(=O)Nc1c[nH]c2ccc(O[C@H]3C[C@H](c4ccc(C(F)(F)F)cc4)C3)cc12 [Compound 237, 1-methyl-N-{5-[(1R,3R)-3-[4-(trifluoromethyl)phenyl]cyclobutoxy]-1H-indol-3-yl}-1H-pyrazole-5-carboxamide]	0.2 to 1 µM
CC12CC(C(=O)Nc3c[nH]c4ccc(O[C@H]5C[C@H](c6ccc(C(F)(F)F)cc6)C5)cc34)(C1)C2 [Compound 238, 3-methyl-N-{5-[(1R,3R)-3-[4-(trifluoromethyl)phenyl]cyclobutoxy]-1H-indol-3-yl}bicyclo[1.1.1]pentane-1-carboxamide]	0.04 to 0.2 µM
O=C(Nc1c[nH]c2ccc(O[C@H]3C[C@H](c4ccc(C(F)(F)F)cc4)C3)cc12)c1cscn1 [Compound 239, N-(5-((1R,3R)-3-(4-(trifluoromethyl)phenyl)cyclobutoxy)-1H-indol-3-yl)thiazole-4-carboxamide]	0.04 to 0.2 µM
Cn1cc(C(=O)Nc2c[nH]c3ccc(OCc4ccc(C(F)(F)F)cc4)cc23)nn1 [Compound 240, 1-methyl-N-(5-((4-(trifluoromethyl)benzyl)oxy)-1H-indol-3-yl)-1H-1,2,3-triazole-4-carboxamide]	1 to 5 µM
Cn1cc(C(=O)Nc2c[nH]c3ccc(O[C@H]4C[C@@H](c5ccc(C(F)(F)F)cc5)C4)cc23)nn1 [Compound 241]	0.2 to 1 µM
Cn1cc(C(=O)Nc2c[nH]c3ccc(OCC[C@@H]4C[C@@H]5CN(CC(F)(F)F)C[C@@H]5C4)cc23)nn1 [Compound 242, N-(5-{2-[(3aR,5R,6aS)-2-(2,2,2-trifluoroethyl)octahydrocyclopenta[c]pyrrol-5-yl]ethoxy}-1H-indol-3-yl)-1-methyl-1H-1,2,3-triazole-4-carboxamide]	0.2 to 1 µM
Cn1cc(C(=O)Nc2c[nH]c3ccc(CCOc4ccc(C(F)(F)F)cc4)cc23)nn1 [Compound 243, 1-methyl-N-(5-(2-(4-(trifluoromethyl)phenoxy)ethyl)-1H-indol-3-yl)-1H-1,2,3-triazole-4-carboxamide]	0.2 to 1 µM
Cn1cc(C(=O)Nc2c[nH]c3ccc(OCCc4ccc(C(F)(F)F)cc4)cc23)nn1 [Compound 244, 1-methyl-N-(5-(4-(trifluoromethyl)phenethoxy)-1H-indol-3-yl)-1H-1,2,3-triazole-4-carboxamide]	0.04 to 0.2 µM
O=C(Nc1c[nH]c2ccc(OCCc3ccc(C(F)(F)F)cc3)cc12)c1cn(-c2cnc(N3CCC(F)(F)CC3)c(F)c2)nn1 [Compound 245, 1-(6-(4,4-difluoropiperidin-1-yl)-5-fluoropyridin-3-yl)-N-(5-(4-(trifluoromethyl)phenethoxy)-1H-indol-3-yl)-1H-1,2,3-triazole-4-carboxamide]	0.2 to 1 µM
O=C(Nc1c[nH]c2ccc(Oc3ccccc3)cc12)c1cnn(Cc2ccc(C(F)(F)F)cc2)c1 [Compound 246, N-(5-phenoxy-1H-indol-3-yl)-1-(4-(trifluoromethyl)benzyl)-1H-pyrazole-4-carboxamide]	0.04 to 0.2 µM

Reference: patent US20230250060A1 (IFM Due, Inc., priority 2022, published 2023)
